Values quoted from earlier work in patent US12691140B2, “Therapeutic carbon monoxide formulations” (THE BRIGHAM AND WOMEN'S HOSPITAL, INC., priority 2020, dated 2026).

Conditions: dogs, abdominal insufflation to COHb levels comparable to inhalation

In the case of `[C-]#[O+]` [CO, Carbon monoxide], the toxicity is given as “no toxicity”.
